# Data as given in EPA's ToxValDB 9.5 (doi:10.2903/j.efsa.2012.2945).
# Columns and labels:
# Typhlodromus pyri = test: LR50; higher = less toxic; conditions: acute; duration: 48 hours; mortality
# Aphidius rhopalosiphi = test: LR50; higher = less toxic; conditions: acute; duration: 48 hours; mortality
# Tagia sp. = conditions: acute; duration: 14 days; mortality
# Daphnia magna = conditions: chronic/long-term; duration: 21 days; mortality
# Neomysis kadiakensis = conditions: chronic/long-term; duration: 28 days; reproduction
# Apis mellifera = conditions: acute; duration: 24 hours; oral; unspecified; mortality
# Colinus virginianus = conditions: acute, oral, mortality
# Mus musculus = conditions: acute; oral; mortality
# Anas platyrhynchos = conditions: oral, mortality
# Cyprinus carpio = conditions: acute; duration: 96 hours; mortality
# Pimephales promelas = conditions: chronic/long-term; duration: 32 days; growth
SMILES,"NOAEL (Rattus norvegicus; developmental, development)",LR50 (Typhlodromus pyri),LR50 (Aphidius rhopalosiphi),LC50 (Tagia sp.),NOEC (Daphnia magna),NOEC (Neomysis kadiakensis),LD50 (Apis mellifera),LC50 (Colinus virginianus; diet),LD50 (Colinus virginianus),LD50 (Mus musculus),"LD50 (Anas platyrhynchos; acute, unspecified)","LC50 (Anas platyrhynchos; short-term, feed)","NOAEL (Rattus norvegicus; chronic, duration: 2 years)","NOAEL (Rattus norvegicus; reproduction developmental, reproduction)","NOAEL (Rattus norvegicus; subchronic, duration: 90 days, oral)",LC50 (Cyprinus carpio),NOEC (Pimephales promelas)
O=c1ccc(C(F)(F)F)c[nH]1 [5-(Trifluoromethyl)pyridin-2(1H)-one],60 mg/kg-day,–,–,–,–,–,–,–,–,–,–,–,–,–,–,–,–
CCCCOC(=O)[C@@H](C)Oc1ccc(Oc2ccc(C(F)(F)F)cn2)cc1 [Fluazifop-P-butyl],2 mg/kg-day,5.6 g/ha,177 g/ha,> 1000 mg/kg,0.25 mg/L,0.0477 mg/L,> 200 µg/piece,> 1070 mg/kg-day,> 2000 mg/kg-day,> 2000 mg/kg-day,> 3960 mg/kg-day,> 942 mg/kg-day,1 mg/kg-day,6.72 mg/kg-day,0.9 mg/kg-day,1.31 µg/mL,0.077 mg/L
CC(Oc1ccc(Oc2ccc(C(F)(F)F)cn2)cc1)C(=O)O (centres undefined) [Fluazifop],–,–,–,–,–,–,–,–,–,–,–,–,1 mg/kg-day,–,–,–,–
